Measurements as given in patent publication US6852695B2, “Orally active fraction of momordica charantia, active peptides thereof, and their use in the treatment of diabetes” (Theracos, Inc., priority 1997, dated 2005).

Key:
[1] = test system: normal rats; assay: Oral glucose tolerance test in normal rats; format: in vivo, rat; conditions: compared to vehicle treated animals, FIG. 11
Text: FIG. 11 represents the hypoglycemic activity of MC6.1 and its derivators, MC6.2 and 6.3 analogs in oral glucose tolerance test in normal rats.

[2] = test system: SD rats; assay: Comparison of MC6 (oral, i.v.) with i.v. r-insulin during glucose infusion in SD rats; format: in vivo, rat; conditions: 500 μg MC6 i.v. or 150 mU r-insulin i.v. at 60 minutes following glucose infusion, FIG. 5
Procedure: In the next experiment, orally administered purified fraction MC6 (500 μg) was compared with i.v. injection of insulin (150 mU) in SD rats. Animals were divided into four groups and starved for three hours. Group 1 received PBS only; group 2 was given MC6 orally 60 minutes before glucose infusion; group 3 received 150 mU r-insulin (Humalin-R® of Novo-Nordisk) i.v. at 60 minutes following glucose infusion through jugular vein and group 4 received 500 μg MC6 in 1 ml PBS (i.v.) at 60 minutes following glucose infusion through jugular vein. In all cases, glucose infusion was at 18 mg/min/kg. Blood samples were collected from the carotid artery at different time intervals and quantitative plasma glucose levels were measured […].

Substance | lowering blood glucose in oral glucose tolerance test [1] | hypoglycemic profile, systemic (i.v.) injection [2]
6.3: 7-a.a. derivative of MC6.1: K-T-N-M-K-H-M (SEQ ID NO:03) (KTNMKHM) | effective in lowering blood glucose | –
r-insulin: r-insulin (Humalin-R of Novo-Nordisk), 150 mU i.v., comparator | – | identical hypoglycemic profile
